Data on 19 compounds can be found in patent US12037324B2, “Biarylmethyl heterocycles” (Université de Montréal, priority 2016, dated 2024).

Assay [1] concerns the target T1, hAT1R (Homo sapiens, UniProt P30556).
T1 sequence (P30556 1-359): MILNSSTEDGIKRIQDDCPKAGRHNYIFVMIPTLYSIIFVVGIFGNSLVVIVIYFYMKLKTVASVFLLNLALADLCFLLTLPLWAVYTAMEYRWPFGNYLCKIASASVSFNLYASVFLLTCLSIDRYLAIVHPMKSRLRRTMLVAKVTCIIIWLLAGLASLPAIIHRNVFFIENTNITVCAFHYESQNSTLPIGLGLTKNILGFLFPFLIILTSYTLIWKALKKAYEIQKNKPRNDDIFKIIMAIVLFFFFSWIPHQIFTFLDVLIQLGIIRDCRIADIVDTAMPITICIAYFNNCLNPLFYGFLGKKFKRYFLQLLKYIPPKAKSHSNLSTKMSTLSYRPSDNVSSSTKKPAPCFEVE
Nature of the assay: cell-based. The following applies: agonist mode; for pEC50: read-out: BRET P63 EC50. For orientation: Bioluminescence resonance energy transfer reports proximity on the nanometre scale.

Assay [2] addresses T1, hAT1R. The experiment in a line: BRET Gq biosensor assay, agonist response, HEK293 cells. It is filed as cell-based. The settings on record: section of the 42nd table directly before the BRET P63 section. A digest of the protocol: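 Agonist EC50 derived from a 4-parameter fit of BRET2 ratio (GFP 515 nm/Rluc 410 nm), scaled between unstimulated control and maximal AngII response. Readings taken 5 min after compound addition at room temperature, with 2 μM coelenterazine, in HEK293 cells expressing hAT1R, Gαq-Rluc, Gβ1 and GFP-Gγ1 (transfected two days earlier).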

The target in assay [3] is T2, AGTR1 (Homo sapiens, UniProt P30556).
T2 construct: host or cells: Pathunter CHO-K1 AGTR1 β-arrestin cell line (CHO-K1)
T2 sequence (P30556 1-359): T1 sequence (P30556 1-359)
The experiment in a line: DiscoveRx β-arrestin2 recruitment assay (enzyme complementation, Pathunter CHO-K1 AGTR1 β-arrestin cell line). It is filed as cell-based. The method in brief: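 Chemiluminescent enzyme-complementation read-out of β-arrestin2 recruitment to AGTR1 in engineered CHO-K1 cells after 90 min compound exposure at 37° C. Values are 4-parameter logistic EC50s in agonist mode, IC50s in antagonist mode, with efficacy relative to the maximal All response.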
In general terms: Activated receptors often draw arrestin, which recruitment assays turn into a signal.

For assay [4], the target named is T1, hAT1R. The experiment in a line: cell-based. The settings on record: section of the 42nd table ending at r951, example numbering restarts after the DiscoveRx section; read-out: β-arrestin2 EC50.
The target in assay [5] is T1, hAT1R. The experiment in a line: BRET β-arrestin2 biosensor assay, higher receptor expression (hAT1R 5 ng/well), HEK293 cells. It is filed as cell-based. The following applies: for pEC50: High AT1R Expression.
Where [6] appears, read: DiscoveRx β-arrestin2 recruitment.
[7] abbreviates: DiscoveRx β-arrestin2 recruitment, maximal response.

Each structure is given as a SMILES string. pEC50: −log10 of the molar value. Read-outs that look alike come from different tables or passages of the source.

In the case of `CCOc1nc2cccc(C(=O)O)c2n1Cc1ccc(-c2cc(Oc3cccc(F)c3)ccc2-c2nn[nH]n2)cc1` [Example 331], the pEC50 in assay [1] was < 5.00; in assay [2], 7.58; in assay [3] (setting [6]) it was 7.88; in assay [4], 8.08. Also, the “DiscoveRx β-arrestin2 Ymax (%)” value in assay [3] (setting [7]) is given as 44.5%.
Turning to `CCCCC(=O)N(Cc1ccc(-c2cc(-c3cccc(C)n3)ccc2-c2nn[nH]n2)cc1)C1(C(=O)O)CCCCC1` [Example 294], the “BRET β-Arrestin2 High AT1R Expression Ymax (%)” value in assay [5] was 24.7%. The pEC50 in assay [5] is 6.82; in assay [1] it was < 4.00; in assay [2] it was 6.37; in assay [3] (setting [6]), 7.06. In addition, in assay [3] (setting [7]), the “DiscoveRx β-arrestin2 Ymax (%)” value worked out at 28.9%.
Take `CCCCc1nc(Cl)c(C(=O)O)n1Cc1ccc(-c2cc(-c3cccc4[nH]ccc34)ccc2-c2nn[nH]n2)cc1` [Example 392, 1-((5′-(1H-indol-4-yl)-2′-(2H-tetrazol-5-yl)-1,1,1′-biphenyll-4-yl)methyl)-2-butyl-4-chloro-1H-imidazole-5-carboxyimc acid]: the “BRET β-Arrestin2 High AT1R Expression Ymax (%)” value in assay [5] is listed as 79.1%. The pEC50 in assay [5] was 7.76; in assay [1], < 4.00; in assay [2], 5.48; in assay [3] (setting [6]), 7.34. In assay [3] (setting [7]), the “DiscoveRx β-arrestin2 Ymax (%)” value is 29.2%.
Turning to `CCCCC(=O)N(Cc1ccc(-c2cc(N3CCCC(C)C3)ccc2-c2nn[nH]n2)cc1)C1(C(=O)O)CCCCC1` (stereo not drawn) [Example 297, 1-(N-((5′-(3-methylpiperidin-1-yl)-2′-(2H-tetrazol-5-yl)-[1,1′-biphenyl]-4-yl)methyl)pentanamido)cyclohexanecarboxylic acid], the “BRET β-Arrestin2 High AT1R Expression Ymax (%)” value in assay [5] amounted to 74.5%. The pEC50 is 6.48 in assay [5], < 4.00 in assay [1], 6.21 in assay [2] and 6.85 in assay [3] (setting [6]). In assay [3] (setting [7]), the “DiscoveRx β-arrestin2 Ymax (%)” value is on record as 30.5%.
As for `CCc1nc2c(C)cc(C)nc2n1Cc1ccc(-c2cc(-c3cccc(C)c3)ccc2-c2nn[nH]n2)c(F)c1` [Example 267], the “BRET P63 Ymax” value in assay [1] is 17.7%. Moreover, the pEC50 is 8.12 in assay [1], 7.44 in assay [2], 8.01 in assay [3] (setting [6]) and 8.09 in assay [4]. For the same compound, the “DiscoveRx β-arrestin2 Ymax (%)” value in assay [3] (setting [7]) came out at 62.5%.
In the case of `CCCCC(=O)N(Cc1ccc(-c2cc(Nc3ccccc3)ccc2-c2nn[nH]n2)cc1)[C@H](C(=O)O)C(C)C` [Example 449], the “BRET β-Arrestin2 High AT1R Expression Ymax (%)” value in assay [5] amounted to 30.1%. The pEC50 in assay [5] was 6.46; in assay [1], < 4.00; in assay [2] it was < 4.00; in assay [3] (setting [6]), 6.58. The “DiscoveRx β-arrestin2 Ymax (%)” value in assay [3] (setting [6]) was found to be 17.8%.
Consider `CCOc1nc2cccc(C(=O)O)c2n1Cc1ccc(-c2cc(Oc3cccc(OC(F)(F)F)c3)ccc2-c2nn[nH]n2)cc1` [Example 335], for which the pEC50 in assay [1] is < 5.00; in assay [2] it was 6.14; in assay [3] (setting [6]), 7.44; in assay [4], 8.22. For the same compound, in assay [3] (setting [7]), the “DiscoveRx β-arrestin2 Ymax (%)” value was determined as 22.7%.
As to `CCCCC(=O)N(Cc1ccc(-c2cc(-c3ccccn3)ccc2-c2nn[nH]n2)cc1)C1(C(=O)O)CCCCC1` [Example 293, 1-(N-((5′-(Pyridin-2-yl)-2′-(2H-tetrazol-5-yl)-[1,1′-biphenyl]-4-yl)methyl)pentanamido)cyclohexanecarboxylic acid], the “BRET β-Arrestin2 High AT1R Expression Ymax (%)” value in assay [5] came to 70.2%. In addition, the pEC50 is 6.87 in assay [5], < 4.00 in assay [1], 5.91 in assay [2] and 6.73 in assay [3] (setting [6]). For the same compound, the “DiscoveRx β-arrestin2 Ymax (%)” value in assay [3] (setting [7]) was 40.4%.
As to `CCCCC(=O)N(Cc1ccc(-c2cc(-c3cccc(OC)n3)ccc2-c2nn[nH]n2)cc1)C1(C(=O)O)CCCCC1` [Example 296], the “BRET β-Arrestin2 High AT1R Expression Ymax (%)” value in assay [5] was determined as 79.9%. Also, the pEC50 in assay [5] is 7.16; in assay [1] it was 6.51; in assay [2] it was 6.21; in assay [3] (setting [6]) it was 6.89. Besides, the “BRET P63 Ymax” value in assay [1] stood at 6.9%. The “DiscoveRx β-arrestin2 Ymax (%)” value in assay [3] (setting [7]) was found to be 41.8%.
As for `CCCCC(=O)N(Cc1ccc(-c2cc(-c3ccccn3)ccc2-c2nn[nH]n2)cc1)[C@H](C(=O)O)C(C)C` [Example 443, (S)-3-Methyl-2-(N-((5′-(pyridin-2-yl)-2′-(2H-tetrazol-5-yl)-[1,1′-biphenyl]-4-yl)methyl)pentanamido)butanoic], in assay [5], the “BRET β-Arrestin2 High AT1R Expression Ymax (%)” value is on record as 83.9% and the pEC50 is 6.81. Besides, in assay [1], the “BRET P63 Ymax” value is 4.5% and the pEC50 is 6.44. Further, the pEC50 in assay [2] is 7.11. Moreover, in assay [3] (setting [6]), the “DiscoveRx β-arrestin2 Ymax (%)” value worked out at 36.5% and the pEC50 was 6.91.
Turning to `CCCCC1=NC2(CCCC2)C(=O)N1Cc1ccc(-c2cc(Oc3cc(C)ccn3)ccc2-c2nn[nH]n2)cc1` [Example 455], the pEC50 in assay [2] is 7.03; in assay [3], < 4.00; in assay [3] (setting [6]) it was 7.33; in assay [4], 6.74. In addition, the “DiscoveRx β-arrestin2 Ymax (%)” value in assay [3] (setting [6]) was 14.4%.
Consider `CCCCC(=O)N(Cc1ccc(-c2cc(-c3cccc(C)n3)ccc2-c2nn[nH]n2)cc1)[C@H](C(=O)O)C(C)C` [Example 444], for which the “BRET β-Arrestin2 High AT1R Expression Ymax (%)” value in assay [5] is given as 46.5%. For the same compound, the pEC50 is 6.83 in assay [5], < 4.00 in assay [1], 6.59 in assay [2] and 6.90 in assay [3] (setting [6]). In addition, the “DiscoveRx β-arrestin2 Ymax (%)” value in assay [3] (setting [6]) was found to be 36.3%.
On to `CCCCC(=O)N(Cc1ccc(-c2cc(-c3cccc(OC)n3)ccc2-c2nn[nH]n2)cc1)[C@H](C(=O)O)C(C)C` [Example 446], for which, in assay [5], the “BRET β-Arrestin2 High AT1R Expression Ymax (%)” value was found to be 84.3%. Also, the pEC50 in assay [5] was 6.84; in assay [1], 6.18; in assay [2], < 4.00; in assay [3] (setting [6]), 6.75. Further, in assay [1], the “BRET P63 Ymax” value was found to be 4.5%. Also, the “DiscoveRx β-arrestin2 Ymax (%)” value in assay [3] (setting [6]) is 29.8%.
Turning to `CCCCC(=O)N(Cc1ccc(-c2cc(N3CCCC(C)C3)ccc2-c2nn[nH]n2)cc1)[C@H](C(=O)O)C(C)C` (stereo partly drawn) [Example 448], the “BRET β-Arrestin2 High AT1R Expression Ymax (%)” value in assay [5] was found to be 58.5%. Moreover, the pEC50 in assay [5] was 6.22; in assay [1], < 4.00; in assay [2] it was 6.07; in assay [3] (setting [6]), 6.79. Also, the “DiscoveRx β-arrestin2 Ymax (%)” value in assay [3] (setting [6]) stood at 20.8%.
Take `CCCCC(=O)N(Cc1ccc(-c2cc(N3CCC(C)CC3)ccc2-c2nn[nH]n2)cc1)[C@H](C(=O)O)C(C)C` [Example 447]: the “BRET β-Arrestin2 High AT1R Expression Ymax (%)” value in assay [5] is 63.1%. The negative logarithm of the EC50 (pEC50) is 6.47 in assay [5], < 4.00 in assay [1], 5.86 in assay [2] and 6.53 in assay [3] (setting [6]). Moreover, the “DiscoveRx β-arrestin2 Ymax (%)” value in assay [3] (setting [6]) came to 35.0%.
Take `CCCCC(=O)N(Cc1ccc(-c2cc(-c3ccccc3)ccc2-c2nn[nH]n2)cc1)C1(C(=O)O)CCN(c2ccccc2)CC1` [Example 298, 4-(N-((6′-(2H-Tetrazol-5-yl)-[1,1′:3′,1″-terphenyl]-4-yl)methyl)pentan-amido)-1-phenylpiperidine-4-carboxylic acid]: the “BRET β-Arrestin2 High AT1R Expression Ymax (%)” value in assay [5] amounted to 68.8%. Besides, the pEC50 was 6.57 in assay [5], < 4.00 in assay [1], 6.02 in assay [2] and 6.56 in assay [3] (setting [6]). The “DiscoveRx β-arrestin2 Ymax (%)” value in assay [3] (setting [7]) turned out to be 31.3%.
For the compound `CCCCC(=O)N(Cc1ccc(-c2cc(-c3ccccc3)ccc2-c2nn[nH]n2)cc1)[C@]1(C(=O)O)CC[C@H](O)CC1` [Example 284, (1S,4S)-1-(N-((6′-(2H-Tetrazol-5-yl)-[1,1′:3′,1″-terphenyl]-4-yl)methyl)pentanamido)-4-hydroxycyclohexanecarboxylic acid], in assay [5], the “BRET β-Arrestin2 High AT1R Expression Ymax (%)” value was found to be 92.9%. Also, the pEC50 in assay [5] was 7.48; in assay [2], 6.82; in assay [3] (setting [6]), 7.68. Further, in assay [3] (setting [7]), the “DiscoveRx β-arrestin2 Ymax (%)” value is 62.7%.
Turning to `CCCCc1ncc(C(=O)NCC)n1Cc1ccc(-c2cc(-c3ccccc3)ccc2-c2nn[nH]n2)cc1` [Example 379], the “BRET β-Arrestin2 High AT1R Expression Ymax (%)” value in assay [5] worked out at 72.7%. Besides, the pEC50 was 7.25 in assay [5], 6.97 in assay [2] and 7.67 in assay [3] (setting [6]). In addition, in assay [3] (setting [7]), the “DiscoveRx β-arrestin2 Ymax (%)” value stood at 30.2%.
In the same order, the values of `CCCCc1ncc(C(=O)NCCC)n1Cc1ccc(-c2cc(-c3ccccc3)ccc2-c2nn[nH]n2)cc1` [Example 372] are 78.9%, 7.35, 7.13, 7.23 and 41.7%.

What is called pEC50 is −log10 of the EC50, conventionally taken in molar units.
